Test results reported in publication PMC6418145 (Scientific Reports, 2019).
Blank lines part the entries; values can stand above or below the compound they belong to.

What was measured:
in vivo = settings: mouse, ip
Description: (§1) Blood (approximately 100 µl) was collected from the vena facialis in anaesthetised animals, followed by CSF sampling (approximately 10 µl) from the cisterna magna under pentobarbital anaesthesia (1:25 in saline, 10 ml/kg, i.p., Narcoren, Boehringer Ingelheim, Germany). Subsequently, the brain was removed and its anterior third (including the medial prefrontal and anterior cingulate cortices) dissected and transferred into Precellys tubes cooled in liquid nitrogen. For plasma extraction, blood was transferred to EDTA coated tubes and centrifuged for 10 min at 10,000 rpm at 4 °C. Maximal plasma concentration (Cmax), time taken to reach maximal plasma concentration (Tmax) and mean residence time were assessed using liquid chromatography–mass spectrometry analysis executed on the HP1200 (Agilent, CA, USA) coupled to the API 6500 (AB Sciex, Germany) using BI00001052 (Boehringer Ingelheim) as internal standard. In short, 5 µl of plasma or CSF sample were mixed with 10 nl internal standard. 70 µl acetonitrile (ACN)/methanol (1:1) was added, kept at −20 °C for 15 min and centrifuged for 4 min at 4000 rpm at 4 °C. 30 µl of the supernatant was mixed with 170 µl 0.1% formic acid. Brain homogenization was executed by Precellys Evolution (Bertin) after adding ACN/methanol (1:1)/aq.dest. (3:1) to each brain sample with a volume corresponding to 4 parts of the brain weight, followed by centrifugation for 1 min at 4000 rpm at 4 °C. 5 µl of the supernatant was mixed with 10 nl of internal standard.

[1] = Pharmacokinetics in plasma, CSF and cortical brain tissue after i.p. injection
Description: as §1

C57BL/6 J mice = assay: 5-choice serial-reaction-time task (5-CSRTT), unspecific behavioural effects; format: in vivo
Description: Training was performed in 16 standard mouse Bussey-Saksida touchscreen chambers (model #80614, Campden Instruments Ltd., UK), previously described in detail. In short, each trapezoidal operant chamber was placed in a sound- and light- attenuating box individually equipped with a house light, a reward magazine with light, a liquid reward dispenser, a sound generator, a perforated stainless steel floor, and a touchscreen placed at the wide end of the chamber and covered permanently by a black acrylic glass 5-hole mask. The reward magazine, located opposite the touchscreen, was connected to a liquid dispenser delivering strawberry milk (Yazoo®). Infrared break-beam sensors located inside and on the front of the food magazine as well as on the touch-screen walls allowed the detection of reward delivery and the animal’s locomotor activity, respectively. Four individual chambers were connected to one computer for controlling the task flow using the graphical task design software ABET II Touch (model #89505, Campden Instruments Ltd., UK) and the WhiskerServer software (Cambridge University Technical Services Ltd., UK)[27].
Mice were habituated to the chambers for three consecutive 20-min sessions during which the house light and magazine light were permanently on. At the start of each session, 30 µl strawberry milk was delivered. Every 15 s after head entry into the magazine, an additional 30 µl strawberry milk was delivered. Head entry turned the magazine light off.
The 5-CSRTT training protocol, originally designed for rats[28], was similar as that previously described for mice[29]–[31]. The training comprised six stages with 30-min sessions initiated by the illumination of the house and magazine lights and delivery of 20 µl strawberry milk. Collection of the reward switched the magazine light off and started the first trial.
In the first stage, the middle window was permanently illuminated, which was turned off when touched, followed by reward delivery (20 µl) with illumination of the magazine light. Head entry switched off the magazine light. Mice performing 30 trials in a session continued to the next stage. Training sessions in stages 2–6 comprised a maximum of 120 trials. Collection of the reward initiated the inter-trial interval (ITI) followed by the illumination of one pseudo-randomly selected aperture for a fixed stimulus duration (SD). Any touch to the screen during the ITI was classified as a premature response which was not counted as a trial and terminated the current trial. Following stimulus detection, a nose poke to the corresponding aperture within a fixed time interval (limited hold; LH) was required for reward delivery. Premature responses made during the ITI, incorrect responses, and the omission of a response within the LH led to a timeout (TO, house light switched off for 4 s) instead of delivery of reward. Correct, incorrect and omitted responses defined the total number of trials. […] The criteria to pass the last stage and reach baseline performance were to complete >30 correct trials, with ≥80% accuracy and ≤30% omissions. Percentage accuracy was defined as the number of correct trials divided by the sum of correct and incorrect trials. Percentage omissions were calculated in terms of the number of completed trials. Premature responding was calculated as a percentage of completed trials. Perseveration was calculated as the number of additional responses made in the same aperture following a correct response. Additionally, the correct-response latency (time from stimulus presentation to correct response) and reward latency (time from correct response to reward collection) were measured across all trials.
Either one or up to three days before, as well as one day after the task challenge, mice were trained at baseline conditions to check for any unexpected changes in task performance (e.g. by long lasting drug- or challenge-induced effects). […]

COX1 = COX1 (Homo sapiens, UniProt P23219); assay: Off-target enzyme assay; format: biochemical; settings: 10 μM compound, not shown
Sequence of COX1 (P23219 24-599): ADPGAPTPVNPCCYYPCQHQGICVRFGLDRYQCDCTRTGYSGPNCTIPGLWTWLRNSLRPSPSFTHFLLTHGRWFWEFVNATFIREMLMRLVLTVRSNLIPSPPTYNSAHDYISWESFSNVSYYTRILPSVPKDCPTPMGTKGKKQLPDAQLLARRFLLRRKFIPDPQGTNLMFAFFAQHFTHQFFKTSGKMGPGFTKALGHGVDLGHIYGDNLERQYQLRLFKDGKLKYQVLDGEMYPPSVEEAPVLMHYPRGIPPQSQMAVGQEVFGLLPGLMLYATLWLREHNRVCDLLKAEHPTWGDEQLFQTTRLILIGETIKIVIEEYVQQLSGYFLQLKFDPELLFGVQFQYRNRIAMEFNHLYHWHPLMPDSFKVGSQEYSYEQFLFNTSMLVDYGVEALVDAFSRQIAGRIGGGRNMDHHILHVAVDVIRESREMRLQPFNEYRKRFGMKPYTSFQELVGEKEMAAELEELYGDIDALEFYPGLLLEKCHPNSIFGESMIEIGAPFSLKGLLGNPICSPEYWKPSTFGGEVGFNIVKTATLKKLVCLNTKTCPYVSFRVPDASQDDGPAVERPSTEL

[2] = molecular target: T1, 5-HT1A serotonin receptor (Homo sapiens, UniProt P08908); assay: Off-target radioligand binding; settings: 10 μM compound
T1 construct: expressed in transfected cells; host or cells: HEK-293 or CHO

COX2 = COX2 (Homo sapiens, UniProt P35354); assay: Off-target enzyme assay; format: biochemical; settings: 10 μM compound, not shown
PDE3A = PDE3A (Homo sapiens, UniProt Q14432); assay: Off-target enzyme assay; format: biochemical; settings: 10 μM compound, not shown
κ opioid receptor = assay: Off-target radioligand binding; design: species or system human; settings: 10 μM compound
α1A adrenoreceptor = molecular target: T2, α1A adrenoreceptor (Homo sapiens, UniProt P35348); assay: Off-target radioligand binding; settings: 10 μM compound
T2 construct: expressed in transfected cells; host or cells: HEK-293 or CHO

[3] = molecular target: T3, 5-HT2B serotonin receptor (Homo sapiens, UniProt P41595); assay: Off-target radioligand binding; settings: 10 μM compound
T3 construct: expressed in transfected cells; host or cells: HEK-293 or CHO
T3 sequence (P41595 whole entry): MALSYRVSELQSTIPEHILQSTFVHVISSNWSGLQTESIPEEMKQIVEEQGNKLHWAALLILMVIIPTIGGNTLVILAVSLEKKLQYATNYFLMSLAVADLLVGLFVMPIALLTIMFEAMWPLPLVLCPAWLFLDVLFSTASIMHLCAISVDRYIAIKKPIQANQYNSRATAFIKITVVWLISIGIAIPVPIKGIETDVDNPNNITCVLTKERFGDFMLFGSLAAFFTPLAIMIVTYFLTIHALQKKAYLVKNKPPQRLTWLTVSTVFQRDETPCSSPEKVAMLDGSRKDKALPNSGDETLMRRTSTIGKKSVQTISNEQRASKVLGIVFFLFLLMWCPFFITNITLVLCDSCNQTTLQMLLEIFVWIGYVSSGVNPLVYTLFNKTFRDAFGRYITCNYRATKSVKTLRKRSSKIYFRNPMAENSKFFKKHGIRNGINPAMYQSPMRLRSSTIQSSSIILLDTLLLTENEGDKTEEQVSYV

[4] = system: 5-HT1B serotonin receptor; assay: Off-target radioligand binding; design: species or system human; settings: 10 μM compound
[5] = molecular target: T4, 5-HT2A serotonin receptor (Homo sapiens, UniProt P28223); assay: Off-target radioligand binding; settings: 10 μM compound
T4 construct: expressed in transfected cells; host or cells: HEK-293 or CHO
T4 sequence (P28223 whole entry): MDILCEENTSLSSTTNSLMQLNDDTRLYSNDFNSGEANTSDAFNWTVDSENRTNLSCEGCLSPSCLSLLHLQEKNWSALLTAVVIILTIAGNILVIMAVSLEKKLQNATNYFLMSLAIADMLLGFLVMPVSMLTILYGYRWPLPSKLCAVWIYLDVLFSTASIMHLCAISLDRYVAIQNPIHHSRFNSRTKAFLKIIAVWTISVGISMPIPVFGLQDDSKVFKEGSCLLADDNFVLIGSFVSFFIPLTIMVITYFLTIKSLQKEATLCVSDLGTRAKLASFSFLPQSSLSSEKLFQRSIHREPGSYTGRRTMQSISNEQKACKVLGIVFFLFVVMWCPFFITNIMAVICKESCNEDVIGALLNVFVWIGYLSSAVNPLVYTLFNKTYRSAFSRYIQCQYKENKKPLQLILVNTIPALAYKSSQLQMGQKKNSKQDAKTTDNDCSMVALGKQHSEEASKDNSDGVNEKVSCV
Description: Receptors and transporters of interest were overexpressed in either human recombinant human embryonic kidney (HEK)-293 or Chinese hamster ovary (CHO) cells. […] Results are expressed as percent inhibition of control-specific binding of the radioactively labelled ligand specific for the respective target. For enzyme inhibition, the effect was calculated as a percent inhibition of control enzyme activity. […] All presented values are the mean of two experiments.

PDE4D2 = PDE4D2 (Homo sapiens, UniProt Q08499); assay: Off-target enzyme assay; format: biochemical; settings: 10 μM compound, not shown
Sequence of PDE4D2 (Q08499 303-809): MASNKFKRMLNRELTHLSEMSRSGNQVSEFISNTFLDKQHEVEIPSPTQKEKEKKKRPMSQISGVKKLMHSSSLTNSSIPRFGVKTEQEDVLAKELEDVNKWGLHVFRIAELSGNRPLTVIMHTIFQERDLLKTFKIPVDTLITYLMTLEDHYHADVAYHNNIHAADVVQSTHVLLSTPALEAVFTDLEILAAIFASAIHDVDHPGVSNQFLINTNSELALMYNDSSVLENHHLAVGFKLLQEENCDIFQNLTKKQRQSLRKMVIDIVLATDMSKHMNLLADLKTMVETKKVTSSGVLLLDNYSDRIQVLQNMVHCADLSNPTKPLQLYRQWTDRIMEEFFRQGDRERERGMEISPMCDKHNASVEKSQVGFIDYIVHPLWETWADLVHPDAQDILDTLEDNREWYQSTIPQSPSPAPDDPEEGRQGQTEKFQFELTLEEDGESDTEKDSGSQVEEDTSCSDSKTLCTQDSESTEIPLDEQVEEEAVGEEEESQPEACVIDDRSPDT

5-HT3 serotonin receptor = 5-HT3 serotonin receptor (Homo sapiens, UniProt P46098); assay: Off-target radioligand binding; settings: 10 μM compound
M3 muscarinic receptor = molecular target: T5, M3 muscarinic receptor (Homo sapiens, UniProt P20309); assay: Off-target radioligand binding; settings: 10 μM compound
T5 construct: expressed in transfected cells; host or cells: HEK-293 or CHO
T5 sequence (P20309 whole entry): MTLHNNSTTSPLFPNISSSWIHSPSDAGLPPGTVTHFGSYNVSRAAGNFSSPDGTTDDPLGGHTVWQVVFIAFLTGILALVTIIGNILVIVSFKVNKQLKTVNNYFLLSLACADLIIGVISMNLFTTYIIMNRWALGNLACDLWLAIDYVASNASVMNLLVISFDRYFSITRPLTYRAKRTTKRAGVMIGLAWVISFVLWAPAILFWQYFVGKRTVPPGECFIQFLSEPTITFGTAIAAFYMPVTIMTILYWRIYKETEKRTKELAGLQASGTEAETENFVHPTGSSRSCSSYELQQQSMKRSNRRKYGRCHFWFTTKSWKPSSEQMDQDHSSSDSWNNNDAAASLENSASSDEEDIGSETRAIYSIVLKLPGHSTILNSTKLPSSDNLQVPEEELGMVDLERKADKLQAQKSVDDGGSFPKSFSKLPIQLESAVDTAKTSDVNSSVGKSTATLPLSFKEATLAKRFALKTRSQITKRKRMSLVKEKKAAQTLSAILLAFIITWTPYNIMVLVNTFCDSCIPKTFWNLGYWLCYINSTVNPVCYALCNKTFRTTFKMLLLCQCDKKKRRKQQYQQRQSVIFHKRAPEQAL

AChE = AChE (Homo sapiens, UniProt P22303); settings: 10 μM compound, not shown
hM3Dq = system: hM3Dq; design: method as in PMID 25587888; settings: FLIPR assay; cited from earlier work
δ opioid receptor = molecular target: T6, δ opioid receptor (Homo sapiens, UniProt P41143); assay: Off-target radioligand binding; settings: 10 μM compound
T6 construct: expressed in transfected cells; host or cells: HEK-293 or CHO
T6 sequence (P41143 whole entry): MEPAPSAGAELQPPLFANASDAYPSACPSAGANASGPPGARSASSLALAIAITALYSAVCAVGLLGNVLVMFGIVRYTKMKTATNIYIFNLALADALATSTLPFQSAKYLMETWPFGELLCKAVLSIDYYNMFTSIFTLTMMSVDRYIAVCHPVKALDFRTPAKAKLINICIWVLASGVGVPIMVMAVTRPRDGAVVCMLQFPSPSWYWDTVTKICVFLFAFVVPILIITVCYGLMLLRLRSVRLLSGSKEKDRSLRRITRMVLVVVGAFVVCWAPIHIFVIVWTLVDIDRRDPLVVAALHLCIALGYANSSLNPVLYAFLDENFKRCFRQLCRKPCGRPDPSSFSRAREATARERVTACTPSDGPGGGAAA

Lck kinase = Lck kinase (Homo sapiens, UniProt P06239); assay: Off-target enzyme assay; format: biochemical; settings: 10 μM compound, not shown
Sequence of Lck kinase (P06239 whole entry): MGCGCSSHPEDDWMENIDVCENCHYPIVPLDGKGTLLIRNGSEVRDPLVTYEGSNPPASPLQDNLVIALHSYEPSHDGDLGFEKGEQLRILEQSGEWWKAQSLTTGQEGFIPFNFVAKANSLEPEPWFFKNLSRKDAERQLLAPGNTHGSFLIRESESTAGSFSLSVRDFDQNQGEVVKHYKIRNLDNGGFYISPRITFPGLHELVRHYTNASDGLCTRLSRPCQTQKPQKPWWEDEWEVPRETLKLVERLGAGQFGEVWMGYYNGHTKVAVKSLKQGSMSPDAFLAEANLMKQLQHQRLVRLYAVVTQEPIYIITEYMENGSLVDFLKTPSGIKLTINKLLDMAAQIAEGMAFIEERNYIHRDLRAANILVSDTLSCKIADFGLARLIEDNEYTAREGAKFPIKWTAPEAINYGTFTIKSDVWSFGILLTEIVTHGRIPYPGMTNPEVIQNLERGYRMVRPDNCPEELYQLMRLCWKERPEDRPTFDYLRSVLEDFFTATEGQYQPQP

hM4Di = molecular target: T7, hM4Di (Homo sapiens, UniProt P08173, A203G/Y113C); assay: FLIPR Ca2+ oscillation assay in primary rat neuronal cultures transduced with hM4Di; format: cell-based; settings: reduction of Ca2+ oscillation frequency, hM4Di-transduced rat primary neurons, Hill fit; read-out: half maximal effective concentration (EC50) at hM4Di
T7 construct: expressed in transfected cells; host or cells: primary cortical neurons of embryonic (E18) Sprague-Dawley rats, AAV-transduced
T7 sequence (P08173 1-479 Y113C/A203G): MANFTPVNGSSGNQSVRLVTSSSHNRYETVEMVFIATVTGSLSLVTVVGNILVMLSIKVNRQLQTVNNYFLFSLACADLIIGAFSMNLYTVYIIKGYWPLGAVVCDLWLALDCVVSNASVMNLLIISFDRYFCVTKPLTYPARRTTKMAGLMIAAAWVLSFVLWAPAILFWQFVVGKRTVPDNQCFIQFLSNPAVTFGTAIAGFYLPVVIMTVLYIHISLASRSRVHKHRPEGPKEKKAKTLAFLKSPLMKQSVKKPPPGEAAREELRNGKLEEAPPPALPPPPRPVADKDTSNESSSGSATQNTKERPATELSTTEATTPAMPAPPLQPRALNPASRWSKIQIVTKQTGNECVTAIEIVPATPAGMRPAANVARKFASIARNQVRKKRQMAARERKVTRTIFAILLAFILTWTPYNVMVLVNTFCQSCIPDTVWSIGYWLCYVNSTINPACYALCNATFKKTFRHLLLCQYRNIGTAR
Description: Briefly, cortices were dissected from embryonic brains, meninges were removed, and cortices transferred into ice-cold dissociation buffer (2 mM kynurenic acid, 10 mM HEPES, 20 mM MgCl2 (Fluka, Germany) and 33.4 mM Glucose in Hank’s Balanced Salt Solution (HBSS), pH 7.4 (Gibco, Thermo Fischer Scientific, Massachusetts, USA). Cortices were then dissociated in 20 units/ml papain solution (5.5 mM L- Cysteine hydrochloride, 1.1 mM ethylenediamine tetra-acetic acid [EDTA], 0.067 mM 2-Mercaptoethanol in Minimum Essential Medium [MEM]) for 15 min at 37 °C. Cortices were washed twice by adding 20 ml plating medium (1:50 foetal calve serum, 1:100 penicillin/streptomycin and 1:100 GlutaMax in MEM) followed by cell filtration using a 70 µm cell strainer (Corning, model #352350, Merck, Germany) to obtain a single-cell suspension. Dissociated cells were re-suspended in serum-free Neurobasal medium with Glutamax and B27 supplement (Gibco) and plated on PDL-coated 96 MTPs (Corning #356640). Virus (ssAAV-1/2-hSyn1-hM4D[Gi]_mCherry-WPRE-hGHp[A]) transduction was performed immediately after plating. Cells were maintained at 37 °C (5% CO2 and 10% O2) in a humidified incubator. A half feed medium change was done on DIV8. Final assay conditions used for evaluating activity of compounds were 0.95 × 10^5 cells/cm^2, transduced with 10.000 multiplicity of infection and measured on DIV9.
Medium was removed and cells were incubated in assay buffer (HBSS, Gibco, 10 mM HEPES, pH 7.4) containing 4 µM Fluo-4AM (Thermo Fischer Scientific) and 0.1% Pluronic F-127 (Thermo Fischer Scientific #P3000MP) for 1 h at room temperature in the dark. Loading buffer was then replaced with assay buffer. After 10 min, assay plates were measured in the FLIPR tetra (Molecular Devices, California, USA) using green fluorescence filter settings (excitation 470–495 nm, emission 515–575 nm). Fluorescence signals were recorded at 1 s intervals (0.4 s exposure time). Compound addition was automated in a single addition protocol. Tested compounds (concentrations:0.3 nM–1 µM; retigabine at 30 µM) were added after recording a baseline response for 5 min followed by another 5 min for recording compound effects on Ca^2+ oscillations. Each compound dose was repeated on three individual plates in duplicates.
Time-series raw fluorescence traces recorded from the FLIPR assay were analysed by detecting Ca^2+ peaks based on a fixed amplitude threshold[19]. The change in oscillation frequency was determined by counting the number of peaks in a defined time interval (5 min) before and after addition of the tested compound and calculating the Ca^2+ oscillations frequency from their number. […] For visualisation, all data were transferred to GraphPad Prism 7 (Graphpad Software, Inc., CA, USA).

M1 muscarinic receptor = molecular target: T8, M1 muscarinic receptor (Homo sapiens, UniProt P11229); assay: Off-target radioligand binding; settings: 10 μM compound
T8 construct: expressed in transfected cells; host or cells: HEK-293 or CHO

μ opioid receptor = molecular target: T9, μ opioid receptor (Homo sapiens, UniProt P35372); assay: Off-target radioligand binding; settings: 10 μM compound
T9 construct: expressed in transfected cells; host or cells: HEK-293 or CHO
T9 sequence (P35372 whole entry): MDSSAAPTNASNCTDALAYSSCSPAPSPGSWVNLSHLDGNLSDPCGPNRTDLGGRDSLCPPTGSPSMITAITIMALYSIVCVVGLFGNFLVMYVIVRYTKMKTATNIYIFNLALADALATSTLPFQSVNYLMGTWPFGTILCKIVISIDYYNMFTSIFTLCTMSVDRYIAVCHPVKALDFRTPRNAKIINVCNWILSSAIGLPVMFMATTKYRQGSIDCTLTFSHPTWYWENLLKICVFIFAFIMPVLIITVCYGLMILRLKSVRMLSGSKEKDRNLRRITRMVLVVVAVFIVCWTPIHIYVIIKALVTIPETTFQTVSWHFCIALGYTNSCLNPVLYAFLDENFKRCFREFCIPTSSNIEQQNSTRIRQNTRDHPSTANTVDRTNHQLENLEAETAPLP

D2 dopamine receptor = molecular target: T10, D2 dopamine receptor (Homo sapiens, UniProt P14416); assay: Off-target radioligand binding; settings: 10 μM compound
T10 construct: expressed in transfected cells; host or cells: HEK-293 or CHO

M2 muscarinic receptor = molecular target: T11, M2 muscarinic receptor (Homo sapiens, UniProt P08172); assay: Off-target radioligand binding; settings: 10 μM compound
T11 construct: expressed in transfected cells; host or cells: HEK-293 or CHO
T11 sequence (P08172 whole entry): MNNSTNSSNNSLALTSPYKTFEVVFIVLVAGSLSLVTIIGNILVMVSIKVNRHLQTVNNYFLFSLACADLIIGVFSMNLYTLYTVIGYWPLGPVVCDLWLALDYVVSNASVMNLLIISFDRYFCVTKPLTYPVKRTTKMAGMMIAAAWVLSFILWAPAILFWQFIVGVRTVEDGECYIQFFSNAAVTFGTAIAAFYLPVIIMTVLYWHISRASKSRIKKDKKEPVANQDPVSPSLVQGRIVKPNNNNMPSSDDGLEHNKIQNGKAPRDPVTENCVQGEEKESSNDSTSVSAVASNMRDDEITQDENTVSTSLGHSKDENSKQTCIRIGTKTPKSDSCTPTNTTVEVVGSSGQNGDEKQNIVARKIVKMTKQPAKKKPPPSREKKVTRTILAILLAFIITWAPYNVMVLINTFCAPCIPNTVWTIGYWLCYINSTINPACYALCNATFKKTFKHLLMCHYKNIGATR

D1 dopamine receptor = molecular target: T12, D1 dopamine receptor (Homo sapiens, UniProt P21728); assay: Off-target radioligand binding; settings: 10 μM compound
T12 construct: expressed in transfected cells; host or cells: HEK-293 or CHO

H1 histamine receptor = molecular target: T13, H1 histamine receptor (Homo sapiens, UniProt P35367); assay: Off-target radioligand binding; settings: 10 μM compound
T13 construct: expressed in transfected cells; host or cells: HEK-293 or CHO
T13 sequence (P35367 whole entry): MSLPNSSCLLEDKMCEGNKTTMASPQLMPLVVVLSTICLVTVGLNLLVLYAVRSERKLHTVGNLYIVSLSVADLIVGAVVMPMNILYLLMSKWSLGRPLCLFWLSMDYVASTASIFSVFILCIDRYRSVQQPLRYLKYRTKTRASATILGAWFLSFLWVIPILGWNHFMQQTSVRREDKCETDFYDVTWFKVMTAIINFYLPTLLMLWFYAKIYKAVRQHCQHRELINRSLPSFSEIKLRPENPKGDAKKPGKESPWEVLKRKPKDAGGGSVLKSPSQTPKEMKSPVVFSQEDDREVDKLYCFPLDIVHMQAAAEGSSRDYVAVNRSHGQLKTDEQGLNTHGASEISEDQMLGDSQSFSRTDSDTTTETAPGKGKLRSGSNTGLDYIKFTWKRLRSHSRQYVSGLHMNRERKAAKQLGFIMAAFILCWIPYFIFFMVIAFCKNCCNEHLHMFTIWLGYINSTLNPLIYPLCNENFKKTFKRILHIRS

[6] = brain (cortical tissue), 3.5 mg/kg
[7] = mice, 15 min after 3.0 mg/kg Cmpd-21 i.p.
[8] = mice, 60 min after 3.0 mg/kg Cmpd-21 i.p.

Kp (in vivo; C57BL/6J, CSF, 1 mg/kg): ~0.01
concentration at 15 min (in vivo; CSF, 1 mg/kg): 1.9 nM
concentration at 15 min (in vivo; [6]): ~427 nM
concentration at 60 min (in vivo; [6]): 406 nM
Kp at 15 min (in vivo; brain, 1 mg/kg): ~6
concentration at 15 min (in vivo; brain, 1 mg/kg): 2060 nM
concentration at 60 min (in vivo; brain, 1 mg/kg): 1020 nM
Tmax (in vivo; plasma, brain and CSF, 1 mg/kg): 15 min
concentration at 15 min (in vivo; plasma, 1 mg/kg): 344 nM
concentration at 60 min (in vivo; plasma, 1 mg/kg): 123 nM
mean CLZ plasma concentration as % of mean CNO plasma concentration ([1]; mice, 15 min after i.p. 3.5 mg/kg CNO): approximately 3.3%
free (CSF) concentration as % of the brain concentration ([1]; mice, after i.p. 1 mg/kg CLZ): approximately 0.1%
concentration in CSF ([1]; mice, all sampling points (15, 30, 60 min) after i.p. 3.5 mg/kg CNO, detection limit): 1 to 2.5 nM
decline within 60 min in plasma and brain tissue ([1]; mice, single injection of CLZ): approximately 2 fold
attentional accuracy (C57BL/6 J mice; CLZ 0.1 mg/kg i.p., p = 0.0439): mild decrease
omissions (inattentiveness) (C57BL/6 J mice; CLZ 1 mg/kg i.p., p = 0.0108): mild increase
Compound: CN1CCN(C2=Nc3cc(Cl)ccc3Nc3ccccc32)CC1 [CLZ, clozapine]
behavioural changes in 5-CSRTT parameters (C57BL/6 J mice; CLZ 0.1, 0.3 and 1 mg/kg i.p., vs vehicle): did not produce any significant behavioural changes in most 5-CSRTT parameters

Compound: c1ccc2c(c1)N=C(N1CCNCC1)c1ccccc1N2 [Cmpd-21, compound 21]
inhibition (COX1): < 25%
competitive inhibition of ligand binding [2]: > 50%
inhibition (COX2): 60%
inhibition (PDE3A): < 25%
competitive inhibition of ligand binding (κ opioid receptor): > 50%
competitive inhibition of ligand binding (α1A adrenoreceptor): > 50%
competitive inhibition of ligand binding [3]: > 50%
competitive inhibition of ligand binding [4]: > 50%
competitive inhibition of ligand binding [5]: > 50%
inhibition (PDE4D2): < 25%
competitive inhibition of ligand binding (5-HT3 serotonin receptor): > 50%
competitive inhibition of ligand binding (M3 muscarinic receptor): > 50%
mean brain concentration [1, 7]: 722 nM
mean concentration in CSF [1, 7]: 52 nM
mean concentration in plasma [1, 7]: 5833 nM
CSF concentration as % of peak value [1, 8]: 54%
mean brain concentration [1, 8]: 1273 nM
plasma concentration as % of peak value [1, 8]: 57%
time of peak plasma and CSF levels ([1]; mice, after 3.0 mg/kg Cmpd-21 i.p., earliest time point of measurement): 15 min
conversion to CLZ or CNO ([1]; mice, data not shown): did not detect any conversion
inhibition (AChE): < 25%
EC50 (hM3Dq): 1.7 nM
competitive inhibition of ligand binding (δ opioid receptor): > 50%
inhibition (Lck kinase): < 25%
EC50 (hM4Di): 2.95 nM
competitive inhibition of ligand binding (M1 muscarinic receptor): > 50%
competitive inhibition of ligand binding (μ opioid receptor): > 50%
competitive inhibition of ligand binding (D2 dopamine receptor): > 50%
competitive inhibition of ligand binding (M2 muscarinic receptor): > 50%
behavioural changes in 5-CSRTT parameters (C57BL/6 J mice; Cmpd-21 0.3, 1 and 3 mg/kg i.p.): did not produce any significant behavioural changes in any 5-CSRTT parameters
competitive inhibition of ligand binding (D1 dopamine receptor): > 50%
competitive inhibition of ligand binding (H1 histamine receptor): > 50%

Compound: Clc1ccc2c(c1)N=C(N1CCNCC1)c1ccccc1N2 [NorCLZ, norclozapine]
detection of metabolite in plasma ([1]; mice, 15, 30, 60 min after i.p. 1 mg/kg CLZ): detectable in all plasma samples
